Earlier results on one compound are cited in patent publication US10875826B2, “Process for the manufacture of SNAC (salcaprozate sodium)” (Emisphere Technologies, Inc., priority 2006, dated 2020).

Counter-ions that a name gives are not always drawn.

In the case of `CCCCCN(C)CCC(O)(P(=O)(O)O)P(=O)(O)O` [Ibandronate sodium, 3-(N-methyl-N-pentyl)-amino-1-hydroxypropane-1,1-diphosphonic acid, monosodium salt, monohydrate], the “solubility in organic solvents” value (organic solvents) was “practically insoluble”. Also, under “water”, the solubility in water entry was “freely soluble”.
